Reference: the supplement of paper PMC10307832

Experiments:
Assay in all cases: relative viability (nuclei count vs DMSO), 5 days (fraction); higher = more cells survive
NCI-H1975 = system: NCI-H1975
In short: (§1)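 For relative viability, nuclei counts in treated wells were divided by those in vehicle wells. Lung cancer cell lines had been pin-tool dosed in 1536-well plates the day after seeding and cultured for 5 days, then fixed and stained in one step (final 0.05% Triton X-100, 1% formaldehyde, 1 ug/ml Hoechst) and imaged at 4×. Doses were one drug alone or a fixed anchor-drug dose plus five library-drug doses (not always all listed) in √10 steps, and values are duplicate-plate medians.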

COR-L 105 = system: COR-L 105
In short: as §1

NCI-H1993 = system: NCI-H1993
In short: as §1

NCI-H1944 = system: NCI-H1944
In short: as §1

HCC-78 = system: HCC-78
In short: as §1

SK-LU-1 = system: SK-LU-1
In short: as §1

NCI-H1734 = system: NCI-H1734
In short: as §1

LU99A = system: LU99A
In short: as §1

NCI-H596 = system: NCI-H596
In short: as §1

NCI-H1650 = system: NCI-H1650
In short: as §1

HCC-366 = system: HCC-366
In short: as §1

LC-2-ad = system: LC-2-ad
In short: as §1

SMILES: O=C(O)CCCCC(CCSCc1ccccc1)SCc1ccccc1 (stereo unspecified) [CPI-613] + Nc1nc2[nH]cc(CCc3ccc(C(=O)N[C@@H](CCC(=O)O)C(=O)O)cc3)c2c(=O)[nH]1 [Pemetrexed] (partner 0.2 µM)
- relative viability (NCI-H1975; first compound 5 µM): 0.267
- relative viability (NCI-H1975; first compound 15.81 µM): 0.293
- relative viability (NCI-H1975; first compound 50 µM): 0.286
- relative viability (NCI-H1975; first compound 158.11 µM): 0.142
- relative viability (NCI-H1975; first compound 500 µM): 0.0754
- relative viability (COR-L 105; first compound 5 µM): 1.01
- relative viability (COR-L 105; first compound 15.81 µM): 1.02
- relative viability (COR-L 105; first compound 50 µM): 1.15
- relative viability (COR-L 105; first compound 158.11 µM): 0.392
- relative viability (COR-L 105; first compound 500 µM): 0.229
- relative viability (NCI-H1993; first compound 5 µM): 0.601
- relative viability (NCI-H1993; first compound 15.81 µM): 0.522
- relative viability (NCI-H1993; first compound 50 µM): 0.537
- relative viability (NCI-H1993; first compound 158.11 µM): 0.378
- relative viability (NCI-H1993; first compound 500 µM): 0.278
- relative viability (NCI-H1944; first compound 5 µM): 0.647
- relative viability (NCI-H1944; first compound 15.81 µM): 0.575
- relative viability (NCI-H1944; first compound 50 µM): 0.577
- relative viability (NCI-H1944; first compound 158.11 µM): 0.339
- relative viability (NCI-H1944; first compound 500 µM): 0.408
- relative viability (HCC-78; first compound 15.81 µM): 0.898
- relative viability (HCC-78; first compound 50 µM): 0.906
- relative viability (HCC-78; first compound 158.11 µM): 0.874
- relative viability (HCC-78; first compound 500 µM): 0.913
- relative viability (SK-LU-1; first compound 5 µM): 0.958
- relative viability (SK-LU-1; first compound 15.81 µM): 0.88
- relative viability (SK-LU-1; first compound 50 µM): 0.87
- relative viability (SK-LU-1; first compound 158.11 µM): 0.22
- relative viability (SK-LU-1; first compound 500 µM): 0.0978
- relative viability (NCI-H1734; first compound 5 µM): 0.387
- relative viability (NCI-H1734; first compound 15.81 µM): 0.418
- relative viability (NCI-H1734; first compound 50 µM): 0.411
- relative viability (NCI-H1734; first compound 158.11 µM): 0.38
- relative viability (NCI-H1734; first compound 500 µM): 0.131
- relative viability (LU99A; first compound 5 µM): 0.179
- relative viability (LU99A; first compound 15.81 µM): 0.199
- relative viability (LU99A; first compound 50 µM): 0.179
- relative viability (LU99A; first compound 158.11 µM): 0.186
- relative viability (LU99A; first compound 500 µM): 0.183
- relative viability (NCI-H596; first compound 5 µM): 0.538
- relative viability (NCI-H596; first compound 15.81 µM): 0.48
- relative viability (NCI-H596; first compound 50 µM): 0.519
- relative viability (NCI-H596; first compound 158.11 µM): 0.352
- relative viability (NCI-H596; first compound 500 µM): 0.0295
- relative viability (NCI-H1650; first compound 5 µM): 0.346
- relative viability (NCI-H1650; first compound 15.81 µM): 0.376
- relative viability (NCI-H1650; first compound 50 µM): 0.393
- relative viability (NCI-H1650; first compound 158.11 µM): 0.151
- relative viability (NCI-H1650; first compound 500 µM): 0.0174
- relative viability (HCC-366; first compound 5 µM): 0.135
- relative viability (HCC-366; first compound 15.81 µM): 0.152
- relative viability (HCC-366; first compound 50 µM): 0.162
- relative viability (HCC-366; first compound 158.11 µM): 0.123
- relative viability (HCC-366; first compound 500 µM): 0.0078
- relative viability (LC-2-ad; first compound 5 µM): 0.256
- relative viability (LC-2-ad; first compound 15.81 µM): 0.275
